One may read the EC50 as the concentration that produces a half-maximal response. What is called chromatographic logD is lipophilicity estimated from chromatographic retention. A low value points to lower lipophilicity. As a reminder, the solubility is how much of the substance goes into solution per volume. High values mean much dissolved substance, low ones little dissolved substance. Usually Solubility stands for the concentration that dissolves in the medium under given conditions. The low end stands for little dissolved substance, the high end for much dissolved substance.

Converted amounts (≈) assume the structure as drawn. Like-named read-outs stand apart in the source and are kept apart here.

In data set [1] the target is T1, full-length B-Catenin (Uniprot ID P35222) (Homo sapiens, UniProt P35222).
T1 construct: 65 nM full-length B-Catenin (Uniprot ID P35222)
T1 sequence (P35222 1-781): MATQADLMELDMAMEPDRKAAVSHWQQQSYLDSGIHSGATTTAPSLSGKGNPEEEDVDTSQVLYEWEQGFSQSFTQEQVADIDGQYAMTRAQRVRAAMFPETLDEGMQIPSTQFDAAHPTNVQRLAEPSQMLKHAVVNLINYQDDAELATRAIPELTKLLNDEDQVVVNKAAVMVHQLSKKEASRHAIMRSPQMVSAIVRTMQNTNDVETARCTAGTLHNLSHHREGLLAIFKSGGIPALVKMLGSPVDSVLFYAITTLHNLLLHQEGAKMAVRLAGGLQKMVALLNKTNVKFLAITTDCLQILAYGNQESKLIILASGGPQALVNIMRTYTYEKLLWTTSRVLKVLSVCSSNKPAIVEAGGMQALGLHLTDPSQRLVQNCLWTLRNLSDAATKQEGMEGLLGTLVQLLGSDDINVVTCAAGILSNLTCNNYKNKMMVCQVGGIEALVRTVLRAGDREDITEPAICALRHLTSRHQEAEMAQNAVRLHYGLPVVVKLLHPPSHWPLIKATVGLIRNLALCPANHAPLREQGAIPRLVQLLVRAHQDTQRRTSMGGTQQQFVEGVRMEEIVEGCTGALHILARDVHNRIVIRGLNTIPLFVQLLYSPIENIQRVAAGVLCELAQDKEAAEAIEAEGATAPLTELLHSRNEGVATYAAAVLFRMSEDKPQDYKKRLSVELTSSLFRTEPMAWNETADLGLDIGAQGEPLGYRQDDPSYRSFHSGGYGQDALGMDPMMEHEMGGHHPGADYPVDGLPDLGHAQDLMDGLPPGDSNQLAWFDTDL
Briefly: Alphascreen binding assay (beta-catenin / biotin-TCF4 10-53). The method, boiled down: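 Final concentrations: 65 nM full-length human β-catenin plus 10 nM biotin-TCF4(10-53) peptide, test peptide 3-fold from 10 uM to 5 nM, preincubated 15 min at 20 °C in Tris pH 8.0/250 mM NaCl buffer. Nickel-chelate AlphaScreen donor/acceptor beads then added for 60 min in the dark; duplicate reads fitted to 1:1 binding model with Hill slope.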
On the technique in general: Alpha assays give light when donor and acceptor beads are brought close together.

Another data set in a line: CHI Log D procedure. As to conditions: for chromatographic logD: pH 7.4, CHI Log D; for CHI Log D: pH 7.4. Format: physicochemical.
The next data set is described as follows: Solubility in PBS. The format is physicochemical. The gist of the method:
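The PBS solution was ultracentrifuged and the supernatant analyzed by HPLC. Its peak area was divided by that of a 50 μM peptide DMSO reference injection and multiplied by 50 uM to give solubility.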

For data set [2], the target named is T2, full-length beta-Catenin (Uniprot ID P35222) (Homo sapiens, UniProt P35222).
T2 construct: 10 nM full-length beta-Catenin (Uniprot ID P35222)
T2 sequence (P35222 1-781): T1 sequence (P35222 1-781)
Briefly: Fluorescence polarization IC50 (beta-catenin / 5FAM-TCF4 10-53 competition). Format: binding. (In general: Fluorescence polarisation rises when a labelled molecule tumbles more slowly, as on binding a larger partner.)

Setting [3] is: Table E2-1, read-out: beta-Catenin FP IC50.
Where [4] appears, read: fluorescence polarization, beta-catenin, read-out: FP EC50.

Consider `CC(=O)N[C@@H](Cc1ccccc1)C(=O)N[C@@H](CC(=O)O)C(=O)N[C@@H](C)C(=O)N[C@]1(C)CCCCCCC=CCOC(=O)N2CC[C@@](C(=O)N[C@@H](Cc3ccccc3)C(=O)N[C@@H](Cc3c[nH]c4ccccc34)C(=O)N[C@@H](CCC(N)=O)C(N)=O)(C2)NC(=O)[C@H](C(C)C)NC(=O)[C@H](CC2CCCC2)NC(=O)[C@H](C)NC(=O)[C@H](C)NC(=O)[C@H](CC(=O)O)NC(=O)[C@H](CC(=O)O)NC1=O` (single isomer, unassigned) [I-95, Ac-Phe-Asp-Ala-R8-Asp-Asp-Ala-Ala-CypA-Val-PyrS-Phe-Trp-Gln-NH2], for which, in data set [1], the EC50 came out at 8660 nM. For the same compound, in “CHI Log D procedure”, the chromatographic logD amounted to 1.31. Further, the solubility at 15 min in “Solubility in PBS” (Solubility (uM)) stood at 33 µM (≈ 59.9 µg/mL).

`CCN(CC(=O)O)C[C@@H]1NC(=O)[C@H](CC(=O)O)NC(=O)C2(CCCC=CCCCCCC[C@@](C)(C(=O)N[C@@H](Cc3ccccc3)C(=O)N[C@@H](Cc3c[nH]c4ccccc34)C(=O)N[C@@H](CCC(N)=O)C(N)=O)NC(=O)[C@H](C(C)C)NC(=O)[C@H](Cc3ccccc3)NC(=O)[C@H](C)NC(=O)[C@H](C)NC1=O)CCCC=CC[C@]1(CCCN1C(C)=O)C(=O)N[C@@H](CC(=O)O)C(=O)N[C@@H](C)C(=O)N2` (stereo partly drawn) [I-172, Ac-PL3-Asp-Ala-B5-Asp-EtGA-Ala-Ala-Phe-Val-S8-Phe-Trp-Gln-NH2] yielded an EC50 in data set [1] of 324 nM. For the same compound, in “CHI Log D procedure”, the “CHI Log D” value was 2.173. In addition, the “Solubility” value in “Solubility in PBS” was 50 µM (≈ 91.9 µg/mL).

In data set [1], `CC(=O)N[C@@H](Cc1ccccc1)C(=O)N[C@@H](CC(=O)O)C(=O)N[C@@H](C)C(=O)N[C@]1(C)CCCCCCC=CCOC(=O)N2CC[C@@](C(=O)N[C@@H](Cc3c(F)c(F)c(F)c(F)c3F)C(=O)N[C@@H](Cc3c[nH]c4ccccc34)C(=O)N[C@@H](CCC(N)=O)C(N)=O)(C2)NC(=O)[C@H](C(C)C)NC(=O)[C@H](Cc2ccccc2)NC(=O)[C@H](C)NC(=O)[C@H](C)NC(=O)[C@H](CC(=O)O)NC(=O)[C@H](CC(=O)O)NC1=O` [I-227, Ac-Phe-Asp-Ala-R8-Asp-Asp-Ala-Ala-Phe-Val-PyrS-Pff-Trp-Gln-NH2] showed an EC50 of 5910 nM. The “CHI Log D” value in the data set “CHI Log D procedure” is 1.534. Moreover, the “Solubility” value in “Solubility in PBS” stood at 38 µM (≈ 72.7 µg/mL).

Compound `CC(=O)N[C@@H](Cc1ccccc1)C(=O)N[C@@H](CC(=O)O)C(=O)N[C@@H](C)C(=O)N[C@]1(C)CCCCCCC=CCOC(=O)N2CC[C@@](C(=O)N[C@@H](Cc3c(F)c(F)c(F)c(F)c3F)C(=O)N[C@@H](Cc3c[nH]c4ccccc34)C(=O)N[C@@H](CCC(N)=O)C(N)=O)(C2)NC(=O)[C@H](C(C)C)NC(=O)[C@H](Cc2ccccc2)NC(=O)[C@H](C)NC(=O)[C@H](C)NC(=O)[C@H](CC(=O)O)NC(=O)[C@H](CC(=O)O)NC1=O` [I-228, Ac-Phe-Asp-Ala-R8-Asp-Asp-Ala-Ala-Phe-Val-PyrS-Pff-Trp-Gln-NH2] had an EC50 in data set [1] of 5910 nM. In addition, the “CHI Log D” value in the data set “CHI Log D procedure” was 1.534. In addition, in the data set “Solubility in PBS”, the “Solubility” value worked out at 38 µM (≈ 72.7 µg/mL).

In the case of `CC(=O)N1CCC[C@]12CC=CCCCC1(CCCC=CCCCCCC[C@@](C)(C(=O)N[C@@H](Cc3ccccc3)C(=O)N[C@@H](Cc3c[nH]c4ccccc34)C(=O)N[C@@H](CCC(N)=O)C(N)=O)NC(=O)[C@H](C(C)C)NC(=O)[C@H](Cc3ccccc3)NC(=O)[C@H](C)NC(=O)[C@H](C)NC(=O)C(Cc3cccc4cc(F)ccc34)NC(=O)[C@H](CC(=O)O)NC1=O)NC(=O)[C@H](C)NC(=O)[C@H](CC(=O)O)NC2=O` (stereo partly drawn) [I-256, Ac-PL3-Asp-Ala-B5-Asp-6F1NapA-Ala-Ala-Phe-Val-S8-Phe-Trp-Gln-NH2], the EC50 in data set [1] was determined as 9210 nM. In the data set “CHI Log D procedure”, this compound registered a chromatographic logD of 3.1. For the same compound, the “Solubility” value in the data set “Solubility in PBS” was determined as 10 µM (≈ 18.8 µg/mL).

As to `CC(=O)N1CCC[C@]12CC=CCCCC1(CCCC=CCCCCCC[C@@](C)(C(=O)N[C@@H](CCc3ccccc3)C(=O)N[C@@H](Cc3c[nH]c4ccccc34)C(=O)N[C@@H](CCC(N)=O)C(N)=O)NC(=O)[C@H](C(C)C)NC(=O)[C@H](Cc3ccccc3)NC(=O)[C@H](C)NC(=O)[C@H](C)NC(=O)[C@H](CC(=O)O)NC(=O)[C@H](CC(=O)O)NC1=O)NC(=O)[C@H](C)NC(=O)[C@H](CC(=O)O)NC2=O` (stereo partly drawn) [I-268, Ac-PL3-Asp-Ala-B5-Asp-Asp-Ala-Ala-Phe-Val-S8-hPhe-Trp-Gln-NH2], a half-maximal response in data set [1] (EC50) required 4000 nM. This compound also returned a chromatographic logD in the data set “CHI Log D procedure” of 2.08. The same compound yielded a Solubility in the data set “Solubility in PBS” (Solubility (uM)) of 47 µM (≈ 84.4 µg/mL).

`CC(=O)N1CCC[C@]12CC=CCCCC1(CCCC=CCCCCCC[C@@](C)(C(=O)N[C@@H](Cc3ccccc3)C(=O)N[C@@H](Cc3c[nH]c4ccccc34)C(=O)N[C@@H](CCC(N)=O)C(N)=O)NC(=O)[C@H](C(C)C)NC(=O)[C@H](Cc3ccccc3)NC(=O)[C@H](C)NC(=O)[C@H](C)NC(=O)[C@H](CCc3ccc(O)cc3)NC(=O)[C@H](CC(=O)O)NC1=O)NC(=O)[C@H](C)NC(=O)[C@H](CC(=O)O)NC2=O` (stereo partly drawn) [I-273, Ac-PL3-Asp-Ala-B5-Asp-hTyr-Ala-Ala-Phe-Val-S8-Phe-Trp-Gln-NH2] gave an EC50 in data set [1] of 1890 nM. Further, the chromatographic logD in the data set “CHI Log D procedure” stood at 2.74. In the data set “Solubility in PBS”, the “Solubility” value is 10 µM (≈ 18.4 µg/mL).

Take `CC(=O)N1CCC[C@]12CC=CCCCC1(CCCC=CCCCCCC[C@@](C)(C(=O)N[C@@H](Cc3ccccc3F)C(=O)N[C@@H](Cc3c[nH]c4ccccc34)C(=O)N[C@@H](CCC(N)=O)C(N)=O)NC(=O)[C@H](C(C)C)NC(=O)[C@H](Cc3ccccc3)NC(=O)[C@H](C)NC(=O)[C@H](C)NC(=O)[C@H](CC(=O)O)NC(=O)[C@H](CC(=O)O)NC1=O)NC(=O)[C@H](C)NC(=O)[C@H](CC(=O)O)NC2=O` (stereo partly drawn) [I-319, Ac-PL3-Asp-Ala-B5-Asp-Asp-Ala-Ala-Phe-Val-S8-2FF-Trp-Gln-NH2]: the IC50 in data set [2] (setting [3]) and in data set [2] (setting [4]) was 1420 nM throughout. For the same compound, the EC50 in data set [1] came out at 54 nM. Moreover, the “CHI Log D” value in the data set “CHI Log D procedure” is reported as 2.019.

For `CC(=O)N1CCC[C@]12CC=CCCCC1(CCCC=CCCCCCC[C@@](C)(C(=O)N[C@@H](Cc3ccccc3)C(=O)N[C@@H](Cc3c[nH]c4ccccc34)C(=O)N[C@@H](CCC(N)=O)C(N)=O)NC(=O)[C@H](C(C)C)NC(=O)[C@H](Cc3ccc(N)cc3)NC(=O)[C@H](C)NC(=O)[C@H](C)NC(=O)[C@H](CC(=O)O)NC(=O)[C@H](CC(=O)O)NC1=O)NC(=O)[C@H](C)NC(=O)[C@H](CC(=O)O)NC2=O` (stereo partly drawn) [I-323, Ac-PL3-Asp-Ala-B5-Asp-Asp-Ala-Ala-4AmPhe-Val-S8-Phe-Trp-Gln-NH2], the IC50 in data set [2] (setting [3]) and in data set [2] (setting [4]) was 3470 nM each time. The same compound displayed a 50% effective concentration (EC50) in data set [1] of 92 nM. Moreover, the “CHI Log D” value in “CHI Log D procedure” amounted to 1.953.

On to `CC(=O)N1CCC[C@]12CC=CCCCC1(CCCC=CCCCCCC[C@@](C)(C(=O)N[C@@H](Cc3ccccc3)C(=O)N[C@@H](Cc3c[nH]c4ccccc34)C(=O)N[C@@H](CCC(N)=O)C(N)=O)NC(=O)[C@H](C(C)C)NC(=O)[C@H](Cc3cccs3)NC(=O)[C@H](C)NC(=O)[C@H](C)NC(=O)[C@H](CC(=O)O)NC(=O)[C@H](CC(=O)O)NC1=O)NC(=O)[C@H](C)NC(=O)[C@H](CC(=O)O)NC2=O` (stereo partly drawn) [I-325, Ac-PL3-Asp-Ala-B5-Asp-Asp-Ala-Ala-2Thi-Val-S8-Phe-Trp-Gln-NH2], for which the IC50 in data set [2] (setting [3]) was 1310 nM. Moreover, a half-maximal effect in data set [1] (EC50) was put at 53 nM. The compound also returned a chromatographic logD in “CHI Log D procedure” of 1.98.

The values are drawn from patent US20240116985A1, “STAPLED PEPTIDES AND METHODS THEREOF” (priority 2020, published 2024).
